Source: patent US20040053989A1, “Dithiolthione compounds for the treatment of neurological disorders and for memory enhancement” (Patrick Prendergast, priority 1999, published 2004)
Entries after “also recorded” stand apart in the source; their conditions may differ. Read-outs that look alike come from different tables or passages of the source.

Assays:
[1] = H2O2-dependent oxidation of 3,3′-diaminobenzidine (DAB) by lesions in AD brain tissue sections after chelator treatment; parameters: species or system human; settings: prior treatment of AD brain tissue sections
From the text: AD is associated with abnormalities of iron metabolism including increased levels of free iron as well as altered levels of iron transport and storage proteins. […] In addition to the NFT and Aβ deposits, redox active metals can be identified in the cytoplasm by the same DAB reaction. […] Although in situ histochemical techniques lack the sensitivity to detect copper, copper (as well as iron) could contribute to the redox activity. The relative effectiveness of copper- and iron-selective chelating agents was used to remove the lesion-dependent redox activity, which provided evidence for both copper- and iron-mediated redox activity in AD. […] Also, DAB oxidation was inhibited by chelation of metals with […]

[2] = system: Primary cortical neuron cultures; settings: Oltipraz 20 μM, Aβ1-42 25 μM, 5 days, MTT; p<0.05, ANOVA
Experimental: Primary cortical neuron cultures were established from E14 mice. […] Cultures were incubated for 5 days (37° C.) and then cell viability was determined using the MTT reduction assay. Cultures were also monitored for morphological changes by phase contrast microscopy. The MTT assay was performed by adding water soluble MTT to the culture medium at 0.5 mg/mL and incubating for 30 min. […] The culture medium was removed and the MTT solubilized in DMSO. Aliquots of solubilized MTT were read on a spectrophotometric plate reader at 570 nm.

[3] = system: Primary fibroblast cultures; assay: H2O2 toxicity in primary fibroblast cultures, murine model for oxidative stress (MTT); assay type: cell-based, mice; settings: H2O2 150 μM, Oltipraz 25 μM
Experimental: (§1) Primary fibroblast cultures were prepared from normal mice (non Tg), mice transfected to produce human wild type presenilin 1 (WT Tg) or mice transfected to produce mutant human presenilin 1 (Mut Tg). All mice are derived from an identical genetic background. […] 50U/mL of catalase was used as a benchmark antioxidant against H2O2 toxicity. Cell viability was determined with the MTT reduction assay. […] Cell viability was determined with the MTT assay.

Mut Tg fibroblasts = settings: Oltipraz 10, 25 and 50 μM; fibroblasts treated with toxic levels of BSO
Experimental: as §1

[4] = system: neurons and clonal cell lines; assay: Attenuation of amyloid-β toxicity; assay type: cell-based; settings: for attenuation of amyloid-β toxicity, dose dependence: pre-incubated with amyloid-β
From the text: In vitro, amyloid-β is toxic to neurons and clonal cell lines.

L. donovani = assay: In vitro anti-protozoal activity, L. donovani; assay type: cell-based
T. cruzi = assay: In vitro anti-protozoal activity, T. cruzi; assay type: cell-based
T.b.rhodesiense STIB900 = assay: In vitro anti-protozoal activity, T.b.rhodesiense STIB900; assay type: cell-based
P. falciparum 3D7 = system: P. falciparum 3D7
Experimental: For in-vitro antimalarial testings, micro-titer plates were used. The concentration of drugs was prepared as pMol/well according to WHO standard procedures (WHO, 1990). The test compound was dissolved in 15% DMSO in sterile RPMI 1640.
The micro-titer plates were predosed with various concentration of the test compound. 50 μL of parasitised erythrocyte suspension in RPMI-1640 (0.2 ml erythrocyte +0.3 ml serum +4-5 ml RPMI-1640) were dispensed in microtiter wells containing various concentrations of drug. Triplicate readings were made for each concentration.
The testing was carried out according to the procedure of Desjardins et al. 1979. After 30 hr culture at 37 degrees C., the same microtiter plates from schizont inhibition assays with another triplicate wells were pulsed with ^3H-hypoxanthine for overnight. The cell suspensions were washed twice on millipore glass fiber filter with Millipore filter apparatus. The filter discs were counted for DPM by Beckman LS6000-scintillation counter. The activity of the drug was measured by plotting DPM against concentration of drug.

[5] = sections treated 2 hrs or overnight
[6] = doses of oltipraz effective at chelating in situ or abolishing amyloid-β toxicity; preliminary data

O=C(O)CN(CCN(CC(=O)O)CC(=O)O)CCN(CC(=O)O)CC(=O)O [DTPA, detapac]
inhibition of lesion-associated DAB oxidation ([1]; 1 mM chelator): inhibited more than half
inhibition of lesion-associated DAB oxidation ([1]; 10 mM chelator): completely abolished; also recorded: nearly all
inhibition of lesion-associated DAB oxidation ([1]; 100 mM chelator): abolished all

Cc1c(-c2cnccn2)ssc1=S [Oltipraz, oltipraz]
cell viability compared to Aβ1-42 alone [2]: small increase in cell viability
protective effect relative to that achieved with 50U/mL catalase [3]: about two thirds
protective effect against H2O2 toxicity ([3]; fibroblasts from Mut Tg mice (mutant human presenilin 1)): not in fibroblasts from Mut Tg mice
protective effect against H2O2 toxicity ([3]; fibroblasts from WT Tg mice (human wild type presenilin 1)): significant protective effect
protective effect against H2O2 toxicity ([3]; fibroblasts from non Tg mice): significant protective effect
cell viability restored (Mut Tg fibroblasts): 100%
attenuation of the neurotoxicity of amyloid-β [4]: significantly attenuate
attenuation of amyloid-β toxicity, dose dependence [4]: reduced in a dose-dependent manner similar to that of deferoxamine
attenuation of amyloid-β toxicity, dose dependence ([4]; listed as oltipraz): attenuate its toxicity in a dose-dependent manner similar to that of deferoxamine
cell survival in brain tissue sections ([4]; shown in a figure): increase cell survival
% Inhibition (L. donovani; concentration 10): 0%
% Inhibition (L. donovani; concentration 30): 3.2%
% Inhibition (T. cruzi; concentration 1): 4.3%
% Inhibition (T. cruzi; concentration 3): 38.6%
% Inhibition (T. cruzi; concentration 10): 54.6%
% Inhibition (T. cruzi; concentration 30): 99.7%
ED50 column, second value in parentheses (not explained) (T. cruzi; line below the ED50): (23.8) μg/ml
% Inhibition (T.b.rhodesiense STIB900; concentration 10): 0%
% Inhibition (T.b.rhodesiense STIB900; concentration 30): 42.5%
% Inhibition (P. falciparum 3D7; concentration 1): 0%
% Inhibition (P. falciparum 3D7; concentration 3): 4.4%
% Inhibition (P. falciparum 3D7; concentration 10): 96.5%
% Inhibition (P. falciparum 3D7; concentration 30): 100%
iron removal compared with DFX [5]: not as effective as DFX
neurotoxicity in vitro [6]: little/no neurotoxicity
